# Assay results taken from patent US9585875B2, “TRPM8 antagonists” (Dompé S.P.A., priority 2011, dated 2017).
# What was measured:
# Male Wistar rats [1] = experiment: Chronic constriction injury model, mechanical allodynia (Dynamic Plantar Aesthesiometer); assay type: in vivo, rat
# Method: (§1) Male Wistar rats (220-250 g, Harlan Italy) were used (n=60). Animals were housed in a room with controlled temperature (22±1° C.), humidity (60±10%) and light (12 h per day) for at least a week before being used. Rats were randomly divided into sham, control and treatment groups; ten animals per group were used. All animal experiments were complied with the Italian (D.L. no.116 of Jan. 27, 1992) and associated guidelines in the European Communities Council (Directive of Nov. 24, 1986, 86/609/ECC).
# (§2) Antiallodynic effects were assessed at 1 and 3 h post dose. Control animals received vehicle alone (0.5 ml/iv/rat; 10% solutol-NMP and 90% PBS).
# (§3) Neuropathic pain behavior was induced by ligation of the sciatic nerve according to the method described by Bennett and Xie [Bennett G. J. and Xie Y. K. A peripheral mononeuropathy in rat that produces disorders of pain sensation like those seen in man, Pain, (1988) 33:87-107]. Briefly, rats were anaesthetized (100 mg/kg ketamine and 10 mg/kg xylazine i.p.) and the left sciatic nerve was exposed at the level of the thigh by blunt dissection through the biceps femoris. Proximal to the sciatic's trifurcation, about 12 mm of nerve was freed of adhering tissue and four ligatures were loosely tied around it with about 1 mm spacing so that the epineural circulation was preserved. The length of nerve thus affected was 6-8 mm long. The animals were allowed to recover and used the day after the surgery. Sham animals represent rats operated but not ligated.
# To assess for changes in sensation or in the development of mechanical allodynia, sensitivity to tactile stimulation was measured using the Dynamic Plantar Aesthesiometer (DPA, Ugo Basile, Italy). Ligated animals were placed in a chamber with a mesh metal floor covered by a plastic dome that enabled the animal to walk freely, but not to jump. The mechanical stimulus was then delivered in the mid-plantar skin of the hind paw. The cut-off was fixed at 50 g, while the increasing force rate (ramp duration) was settled at 20 sec. […]
# Male Wistar rats [2] = experiment: Chronic constriction injury model, cold allodynia (acetone); assay type: in vivo, rat
# Method: as §1, §2, §3
# Cold sensitivity was measured as the number of foot withdrawal responses after application of acetone to the dorsal surface of the paw. A drop of acetone (15-20° C.) was applied to the dorsal surface of the ligated paw with a syringe connected to a thin polyethylene tube while the rats were standing on a metal mesh. A brisk foot withdrawal response, after the spread of acetone over the dorsal surface of the paw, was considered as a sign of cold allodynia. Basal response was measured on the days before treatment (2nd, 6th and 13th). […]
# TRPM8 [3] = molecular target: T1, TRPM8 (Homo sapiens, UniProt Q7Z2W7); experiment: HTS cell-based Ca2+ mobilization assay (FLIPR TETRA) in HEK293/hTRPM8 cells, agonist Cooling Agent 10; set-up: expressed in transfected cells; settings: HEK293/hTRPM8, Cooling Agent 10 at EC80
# T1 sequence (Q7Z2W7 whole entry): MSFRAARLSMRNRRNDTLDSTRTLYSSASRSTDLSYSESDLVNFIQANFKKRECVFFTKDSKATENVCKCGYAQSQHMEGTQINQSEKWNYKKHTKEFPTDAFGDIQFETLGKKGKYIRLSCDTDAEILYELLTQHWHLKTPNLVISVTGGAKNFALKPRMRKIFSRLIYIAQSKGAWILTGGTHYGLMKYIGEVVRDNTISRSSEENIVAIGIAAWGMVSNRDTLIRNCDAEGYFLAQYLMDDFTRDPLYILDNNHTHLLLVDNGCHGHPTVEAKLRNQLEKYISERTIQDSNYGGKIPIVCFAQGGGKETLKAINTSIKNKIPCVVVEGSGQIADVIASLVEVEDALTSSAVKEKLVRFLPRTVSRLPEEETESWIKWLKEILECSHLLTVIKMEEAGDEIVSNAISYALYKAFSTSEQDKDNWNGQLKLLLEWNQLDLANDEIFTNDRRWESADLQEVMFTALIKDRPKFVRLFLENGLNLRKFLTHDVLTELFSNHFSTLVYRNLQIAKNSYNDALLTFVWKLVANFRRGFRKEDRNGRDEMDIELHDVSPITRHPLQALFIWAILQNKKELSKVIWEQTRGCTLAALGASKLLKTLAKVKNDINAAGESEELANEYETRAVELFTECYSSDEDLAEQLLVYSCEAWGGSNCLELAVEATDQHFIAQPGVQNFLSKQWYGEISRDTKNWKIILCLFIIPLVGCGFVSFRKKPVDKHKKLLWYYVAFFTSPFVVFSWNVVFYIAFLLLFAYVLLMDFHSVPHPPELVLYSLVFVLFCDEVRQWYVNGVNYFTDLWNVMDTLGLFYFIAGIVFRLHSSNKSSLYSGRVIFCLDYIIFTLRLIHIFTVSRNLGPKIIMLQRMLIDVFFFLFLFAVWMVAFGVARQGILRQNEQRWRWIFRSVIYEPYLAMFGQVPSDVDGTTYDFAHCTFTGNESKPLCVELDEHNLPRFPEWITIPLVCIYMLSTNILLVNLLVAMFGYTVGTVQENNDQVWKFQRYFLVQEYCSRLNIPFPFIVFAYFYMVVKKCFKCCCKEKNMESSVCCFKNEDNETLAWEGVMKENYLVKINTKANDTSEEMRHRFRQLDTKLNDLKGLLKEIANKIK
# Excerpt: A functional cell-based assay for the identification of TRPM8 receptor antagonists, optimised to allow high throughput screening at FLIPR^TETRA, was developed in HEK293 cells by stable pure clone selection and functional characterization with a fluorescent calcium sensitive dye.
# TRPM8 was cloned into the multiple cloning site of pcDNA3 mammalian expression vector; the obtained construct pcDNA3/hTRPM8 was fully sequence verified and used for the transfection of HEK293 cell line. HEK293 cells stably transfected with TRPM8 gene were maintained in Minimum essential medium. The cells were transfected with the pcDNA3/hTRPM8 vector by electroporation and then selected with medium containing 0.8 mg/ml G418 for 10-15 days.
# The following commercial compounds were used as ligands:
# Activator: Cooling Agent 10 (Takasago CAS N. 87061-04-9)
# Blocker: Capsazepine (SIGMA cat #D_5879)
# The experimental activities were performed using FLIPR^TETRA instruments.
# HEK293 cells stably transfected with TRPM8 gene were maintained in Minimum essential medium.
# The TRPM8 cell line was analysed for the response to a library of compounds using a Ca^2+ mobilization-dependent fluorescence signal in 384 wells microtiter plate format. The analysis was performed using the FLIPR^TETRA (MDC) with the ICCD Camera.
# The execution of the assay involved the use of three microtiter plates:
# 1. Assay plate, containing cells loaded with dye and prepared as follows:
# Cells were seeded at 15000 c/well in Poly-D-Lysine coated 384 wells Microtiter Plates in complete medium (25 μl/well).
# 24 h after seeding, the cell plates were washed with Tyrode assay buffer by the Microplate Washer and 10 μL of Tyrode assay buffer was left in each well.
# Cells were then loaded with 10 μL/well of the Fluo-4 NW dye solution by CyBi®-Well pipettor. Each bottle of Fluo4-NW dye (Molecular Probes cat. #F36206, component A) was re-suspended in 8 mL of Tyrode assay buffer and supplemented with 100 μL of water-soluble probenecid (MolecularProbes cat.#F36206, component B).
# Dye loaded cell plates were incubated for 1 h at room temperature.
# 2. Compound Dilution Plate (FIG. 1), containing diluted test compounds, formulated as follows: […]
# Column 1: wells containing Assay Buffer plus DMSO 0.5% final
# Columns 3-22: wells containing Assay Buffer plus 0.5% DMSO final. To these wells the compounds to be tested were added at 3× concentration.
# Column 23: alternating wells of Max Signal Control in second injection (Assay buffer) and Min Signal Control in second injection (Antagonist Capsazepine IC100, 50 μM) in Assay buffer plus 0.5% DMSO final;
# Column 24: wells containing Capsazepine (Antagonist) at 8 concentrations in duplicate at final concentrations of 50 μM, 25 μM, 6.25 μM, 3.15 μM, 1.56 μM, 780 nM, […] in Assay buffer plus 0.5% DMSO final.
# 3. Activator Plate (FIG. 2), containing agonist Cooling Agent 10 at EC80, formulated as follows:
# Column 1: Cooling Agent 10 (Agonist) at 8 concentrations dose response in duplicate at final concentrations of 100 μM, 31.6 μM, 10 μM, 3.16 μM, 1 μM, 316 nM, 100 nM, 31.6 nM in Assay buffer;
# Columns 2-24: Cooling Agent 10 (Agonist) at EC80 (3 fold concentrated, 20 μM final) in Assay buffer.
# The test was carried out according to a procedure comprising the following steps:
# 1. The samples contained in the wells of the Compound Plate were added to the corresponding wells of the Assay Plate by the FLIPR^TETRA, thus resulting in the addition in Columns 3-22 of the test compounds at 3× concentration to the cells of the assay plates. No mixing was performed in the assay wells and the signal of the emitted fluorescence was recorded for 300 seconds. 2. The samples contained in the wells of the Activator Plate were added to the corresponding wells of the Assay Plate by the FLIPR^TETRA, thus resulting in the addition in Columns 3-22 of the Assay Plate of the agonist compound in addition to the test compounds. The signal of the emitted fluorescence was recorded for 180 seconds.
# TRPV1 = TRPV1 (Homo sapiens, UniProt Q8NER1); experiment: Calcium influx counterassay, agonist capsaicin; assay type: cell-based; settings: 0.1 μM capsaicin = 100%, read-out: Normalized % inhibition (TRPV1)
# TRPV1, sequence (Q8NER1 whole entry, species assumed): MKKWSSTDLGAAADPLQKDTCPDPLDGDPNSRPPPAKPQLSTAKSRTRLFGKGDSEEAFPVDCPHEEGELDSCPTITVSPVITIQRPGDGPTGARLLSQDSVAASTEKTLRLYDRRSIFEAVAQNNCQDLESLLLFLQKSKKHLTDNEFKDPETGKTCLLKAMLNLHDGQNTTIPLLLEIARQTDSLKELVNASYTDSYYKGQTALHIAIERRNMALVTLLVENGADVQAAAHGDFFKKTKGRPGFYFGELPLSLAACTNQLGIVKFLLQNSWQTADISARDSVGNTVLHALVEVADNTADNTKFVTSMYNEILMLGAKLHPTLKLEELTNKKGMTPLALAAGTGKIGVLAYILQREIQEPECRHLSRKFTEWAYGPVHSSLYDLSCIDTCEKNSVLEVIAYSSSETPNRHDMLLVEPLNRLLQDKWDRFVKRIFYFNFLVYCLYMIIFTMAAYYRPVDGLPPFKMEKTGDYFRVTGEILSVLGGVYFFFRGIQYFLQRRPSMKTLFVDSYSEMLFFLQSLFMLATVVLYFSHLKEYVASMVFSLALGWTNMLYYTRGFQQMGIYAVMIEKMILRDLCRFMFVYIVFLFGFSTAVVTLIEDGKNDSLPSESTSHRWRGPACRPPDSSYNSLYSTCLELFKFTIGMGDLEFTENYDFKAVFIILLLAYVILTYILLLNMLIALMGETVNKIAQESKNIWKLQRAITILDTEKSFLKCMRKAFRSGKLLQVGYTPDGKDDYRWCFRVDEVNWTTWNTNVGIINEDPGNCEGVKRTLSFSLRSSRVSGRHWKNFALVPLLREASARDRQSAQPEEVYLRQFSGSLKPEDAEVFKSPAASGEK
# Method: In order to address more specifically the potential selectivity issues, a counterassay was carried out for 10, 45 and 118 against TRPV1 and TRPV4 ion channels, both involved in the nociception (Jhaveri M D, et al 2005. Eur. J. Neurosci. 22 (2): 361-70, Brierley S M et al, 2008, Gastroenterology. 2008 June; 134(7):2059-69. ). The ability of each test compound to act as an antagonist of TRPV1 was evaluated with a calcium influx assay.
# TRPV4 = TRPV4 (Homo sapiens, UniProt Q9HBA0); experiment: Calcium influx counterassay, agonist GSK1016790A; assay type: cell-based; settings: 10 μM GSK1016790A = 100%, read-out: Normalized % inhibition (TRPV4)
# TRPV4, sequence (Q9HBA0 whole entry, species assumed): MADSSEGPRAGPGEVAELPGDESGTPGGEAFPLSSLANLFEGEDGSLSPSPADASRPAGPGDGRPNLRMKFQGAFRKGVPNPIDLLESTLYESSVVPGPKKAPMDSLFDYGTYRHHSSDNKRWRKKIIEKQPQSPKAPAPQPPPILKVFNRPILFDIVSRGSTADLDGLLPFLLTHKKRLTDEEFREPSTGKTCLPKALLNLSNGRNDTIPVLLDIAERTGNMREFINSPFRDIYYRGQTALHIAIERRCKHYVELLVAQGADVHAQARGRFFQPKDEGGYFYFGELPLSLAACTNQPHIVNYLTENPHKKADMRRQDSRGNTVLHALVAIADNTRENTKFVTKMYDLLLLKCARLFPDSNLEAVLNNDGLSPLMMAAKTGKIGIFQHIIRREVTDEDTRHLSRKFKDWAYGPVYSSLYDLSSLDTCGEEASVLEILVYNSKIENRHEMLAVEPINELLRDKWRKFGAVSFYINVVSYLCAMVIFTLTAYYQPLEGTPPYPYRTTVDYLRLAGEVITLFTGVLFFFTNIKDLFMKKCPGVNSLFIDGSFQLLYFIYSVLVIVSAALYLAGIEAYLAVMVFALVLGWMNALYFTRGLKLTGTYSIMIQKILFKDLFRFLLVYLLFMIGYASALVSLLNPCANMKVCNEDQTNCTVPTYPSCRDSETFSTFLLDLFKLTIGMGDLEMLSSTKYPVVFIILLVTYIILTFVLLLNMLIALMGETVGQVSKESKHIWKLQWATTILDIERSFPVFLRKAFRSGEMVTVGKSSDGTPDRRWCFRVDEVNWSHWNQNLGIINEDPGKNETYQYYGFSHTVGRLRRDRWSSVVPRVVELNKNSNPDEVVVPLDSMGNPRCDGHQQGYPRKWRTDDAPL
# Method: In parallel, the ability of each test compound to act as an antagonist of TRPV4 was evaluated with a calcium influx assay.
# Log D = assay type: physicochemical
# TRPM8 [4] = molecular target: T1, TRPM8
# Excerpt: Values were considered significant if the test compound mean was three or more standard deviations away from the positive control agonist mean.
# [5] = 10 mg/kg i.v., day 7 after nerve injury, 1 hour post-dose
# [6] = 10 mg/kg i.v., day 7, 1 hour post-dose
# [7] = day 14 after surgery, 1 h post-dose (Compound 118: 10 mg/kg i.v.)
smiles,measurement,setting,value
"O=C(O)c1sc(-c2ccc(Cl)cc2)nc1O [Compound 1, 2-(4-chlorophenyl)-4-hydroxy-1,3-thiazole-5-carboxylic acid]",inhibition of mechanical allodynia,Male Wistar rats [1]; [5],26 % of inhibition
same,inhibition of cold allodynia,Male Wistar rats [2]; [5],39 % of inhibition
same,IC50,TRPM8 [3],< 10 µM
"Cc1ccc(-c2nc(O)c(C(=O)O)s2)cc1 [Compound 2, 4-hydroxy-2-(4-methylphenyl)-1,3-thiazole-5-carboxylic acid]",IC50,TRPM8 [3],< 10 µM
"CCOC(=O)c1sc(-c2ccccc2)nc1OCc1ccc(Cl)cc1 [Compound 27, ethyl 4-[(4-chlorobenzyl)oxy]-2-phenyl-1,3-thiazole-5-carboxylate]",IC50,TRPM8 [3],< 10 µM
"CCOC(=O)c1sc(-c2ccccc2)nc1OC(=O)c1ccc(C(F)(F)F)cc1 [Compound 36, ethyl 2-phenyl-4-{[4-(trifluoromethyl)benzoyl]oxy}-1,3-thiazole-5-carboxylate]",IC50,TRPM8 [3],< 10 µM
"CCOC(=O)c1sc(-c2ccc(Cl)cc2)nc1OCCN [Compound 41, ethyl 4-(2-aminoethoxy)-2-(4-chlorophenyl)-1,3-thiazole-5-carboxylate]",IC50,TRPM8 [3],< 10 µM
"CCOC(=O)c1sc(-c2ccc(C)cc2)nc1NCCN [Compound 67, ethyl 4-[(2-aminoethyl)amino]-2-(4-methylphenyl)-1,3-thiazole-5-carboxylate]",IC50,TRPM8 [3],< 10 µM
"CCOC(=O)c1sc(-c2ccc(Cl)cc2)nc1NCCNC [Compound 68, ethyl 2-(4-chlorophenyl)-4-{[2-(methylamino)ethyl]amino}-1,3-thiazole-5-carboxylate]",IC50,TRPM8 [3],< 10 µM
"CCOC(=O)c1sc(-c2ccc(Cl)cc2)nc1NCCN [Compound 70, ethyl 4-[(2-aminoethyl)amino]-2-(4-chlorophenyl)-1,3-thiazole-5-carboxylate]",IC50,TRPM8 [3],< 10 µM
"Cc1ccc(-c2nc(OCc3ccc(Cl)cc3)c(C(=O)O)s2)cc1 [Compound 83, sodium 4-[(4-chlorobenzyl)oxy]-2-(4-methylphenyl)-1,3-thiazole-5-carboxylate]",IC50,TRPM8 [3],< 10 µM
"O=C(O)c1sc(-c2ccc(Cl)cc2)nc1OCc1ccc(Cl)cc1 [Compound 84, sodium 4-(4-chlorobenzyloxy)-2-(4-chlorophenyl)-1,3-thiazole-5-carboxylate]",IC50,TRPM8 [3],< 10 µM
"CCn1nnc(-c2sc(-c3cccc(F)c3)nc2O)n1 [Compound 118, 2-(3-fluorophenyl)-5-(2-ethyl-2H-tetrazol-5-yl)-1,3-thiazol-4-ol]",mechanical allodynia,Male Wistar rats [1]; [6],significantly attenuated
same,inhibition of mechanical allodynia,Male Wistar rats [1]; [7],no inhibition
same,cold allodynia,Male Wistar rats [2]; [6],significantly attenuated
same,inhibition of cold allodynia,Male Wistar rats [2]; [7],52 % of inhibition
same,inhibition at 1 µM,TRPV1; Test Conc. 1 uM,1.2%
same,inhibition at 10 µM,TRPV1; Test Conc. 10 uM,2.3%
same,inhibition at 1 µM,TRPV4; Test Conc. 1 uM,2%
same,inhibition at 10 µM,TRPV4; Test Conc. 10 uM,8.9%
same,log D values,Log D,low
same,antagonist activity in calcium influx assay,TRPM8 [4],confirmed the antagonist activity
